In US6759385B1, “Methods to treat undesirable immune responses” (Regents of the University of Minnesota, priority 1997, dated 2004):

Key:
[1] = system: CD4+ cells of MG patients; experiment: Response of CD4+ T cells of MG patients to synthetic human AChR peptides; assay type: cell-based; conditions: irrespective of HLA class II type
Text: Several studies have identified sequences of the human AChR α subunit recognized by T cells in MG patients. To determine whether the CD4^+ cells recognizing those immunodominant and/or universal epitope sequences can drive the synthesis of pathogenic anti-AChR antibodies, and how the ability of the different sequence regions of the AChR to interact with different HLA DR molecules correlates with the presence of universal CD4^+ epitopes, synthetic peptides based on the amino acid sequence of the human α subunit of AChR (Noda et al., Nature, 305, 818 (1983); Schoepfer et al., FEBS Lett., 226, 235 (1981)) were prepared. The peptides were approximately 20 residues long, a length that compares with that of naturally processed class II-restricted epitopes, which are 9-14 residues. […] The peptides overlapped by 5-10 residues to reduce the risk of missing epitopes “broken” between peptides.
The response to individual overlapping synthetic AChR peptides spanning the sequence of each AChR subunit, of unselected blood […], and of CD4^+ T cell lines enriched with AChR-specific cells by culture in vitro with ACHR antigens, was tested. The use of those two cell populations has different advantages and limitations. AChR-specific CD4+ lines have strong, consistent responses to individual peptides that allow a clear-cut assessment of their epitope repertoire. However, they may have an epitope repertoire different from that of the original CD4^+ population due to biased clonal propagation in vitro. Also, denatured forms of the antigen such as synthetic and biosynthetic peptides, which are commonly used for propagation of CD4+ cells specific for rare antigens, may be processed into peptide epitopes different from those obtained from processing of the native antigen in vivo and may expand […] irrelevant for the immune process in vivo. […]

[2] = system: serum anti-TAChR Ab; experiment: Anti-TAChR IgG and IgG1 radioimmunoprecipitation assay (Example IV); assay type: in vivo, mouse; conditions: s.c. tolerization, prevention protocol
Protocol: Anti-TAChR Ab assay. Sera was obtained from each mouse after each clinical testing and at the end of the observation period (12 weeks after beginning of the TAChR immunization). The serum concentration of anti-TAChR IgG and IgGI was determined by radioimmunoprecipitation assay, using TAChR solubilized in Triton X-100 and labeled by the binding of ^125I-α-BTX (Bellone et al., 1991a). As a secondary Ab, either rabbit anti-mouse IgG produced, or goat anti-mouse IgG1 (Sigma, St. Louis, Mo.), was used. The anti-TAChR Ab concentration is expressed as μM precipitated ^125I-α-BTX binding sites.
Two types of experiments were carried out. In one of them the total anti-TAChR Ab in the sera of individual mice, obtained 8, 10 and 12 weeks after the first TAChR immunization, was determined. In the other, the anti-TAChR IgG1 concentration was determined, as well as the total anti-TAChR IgG concentration, in sera obtained at the end of the observation period. For this second assay pooled sera from five mice that had received identical treatments was used.

[3] = system: established EMG in B6 mice; experiment: Subcutaneous treatment, post-priming protocol, established EMG (Example IV); assay type: in vivo, mouse
Protocol: (§1) B6 mice (Jackson Laboratory, Bar Harbor, Me.) were injected s.c. with 100 μl of PBS containing increasing amounts of a pool of the same amount in weight of each of the three epitope peptides Tα150-169, Tα180-200 and Tα360-378 (‘peptide pool’), or 200 μg of Tα150-169 alone, or 100 μl of PBS containing 0.1% Triton X-100 and 10 μg of solubilized TAChR. Two different treatment schedules were used, referred to as prevention and post-priming protocols. In the prevention protocol, the peptides or solubilized TAChR were administered twice per week for 14 weeks, starting 2 weeks before the beginning of the immunization with TAChR. In the post-priming protocol, peptides or solubilized TAChR were administered twice per week for […], starting 8 weeks after the beginning of the TAChR immunization. Control mice received 100 μl of peptide-free PBS, following the same schedules.
(§2) Immunization 8-10 week old mice were immunized by s.c. injections, along the back and at the base of the tail, of TAChR (a total of 50 μg in 100 μl of PBS for each immunization) emulsified in an equal volume of CFA for the first injection, and IFA for the following two boosts. The mice were injected for a total of three times at 3-4 week intervals. At the end of the observation period, the mice received a third boost, and were sacrificed 5-7 days later. Control mice were injected with clean PBS in the appropriate adjuvant.
Evaluation of the symptoms of EMG The EMG symptoms were quantified using a forced exercise test sensitized by i.p. injection of a minute amount of pancuronium bromide (0.03 mg/kg) just before the test (Karachunski et al., 1995). The mouse hangs from a grid suspended above a soft padding, and the time it takes the mouse to fall three times (‘holding time’) was measured. The test is parametric, and gives a quantitative assessment of the mouse weakness. The myasthenic nature of the weakness was verified by injecting i.p. edrophonium chloride (Reversol, Organon, West Orange, N.J.), which is a cholinesterase inhibitor. […] The mice were tested without knowledge of their treatment. […]

[4] = system: EMG in B6 mice immunized with TAChR; experiment: Subcutaneous tolerization, prevention protocol, EMG symptoms (Example IV); assay type: in vivo, mouse; conditions: s.c. 10 μg/injection
Protocol: as §1, §2
Evaluation of the symptoms of EMG The EMG symptoms were quantified using a forced exercise test sensitized by i.p. injection of a minute amount of pancuronium bromide (0.03 mg/kg) just before the test (Karachunski et al., 1995). The mouse hangs from a grid suspended above a soft padding, and the time it takes the mouse to fall three times (‘holding time’) was measured. The test is parametric, and gives a quantitative assessment of the mouse weakness. The myasthenic nature of the weakness was verified by injecting i.p. edrophonium chloride (Reversol, Organon, West Orange, N.J.), which is a cholinesterase inhibitor. […] The mice were tested without knowledge of their treatment.
The holding time of normal mice was 10.4±2.1 minutes (n=99). Mice with holding times of 8 minutes or longer were considered normal. Mice with holding times less than 6.2 minutes (the holding time of normal mice minus two SD) were considered to have fully developed EMG. Holding times of 6.2-8 minutes were considered to potentially indicate initial EMG. Normal or sham-immunized mice had occasionally holding times of 6.2-8 minutes, but never less than 6.2 minutes. Paralyzed mice and mice that died of respiratory paralysis are indicated as having holding time of 0 minutes.

[5] = Distribution in the respiratory tract of solutions administered nasally; assay type: in vivo, mouse; conditions: 25 μl of 4% solution into nostrils, 10-15 minutes
Protocol: Distribution in the Respiratory Tract of Solutions Administered Nasally. To determine which parts of the mouse respiratory system came in contact with solutions given nasally, a solution of ethidium bromide was employed. Ethidium bromide is absorbed through the mucosal lining of the respiratory tract and fluoresces brightly under U.V. light. Two mice were anesthetized and 25 μl of a 4% ethidium bromide solution in PBS was instilled into the nostrils. Ten-fifteen minutes later the animals were sacrificed by cervical dislocation. Their nasal cavities, larynx, trachea, bronchi and lungs were dissected, washed in PBS and examined under U.V. light for ethidium bromide staining.

Compound: α403-437: carboxyl-terminal human AChR α subunit sequence covered by peptides α403-421 and α419-437 (AMVMDHILLGVFMLVCIIGTLAVFAGRLIELNQQG; UniProt P02708 423-457, looked up, fragment)
- recognition by CD4+ cells of MG patients [1]: recognized by the majority of the patients

Compound: solubilized TAChR: Torpedo californica acetylcholine receptor purified from electric organ, solubilized in Triton X-100
- effect on anti-TAChR Ab synthesis [2]: delayed but did not ultimately affect
- mice with holding times of 6.2 or less ([3]; at 44 weeks, s.c. post-priming protocol): 80%
- EMG frequency after the s.c. treatment had started ([3]; s.c. without adjuvant, post-priming protocol): very high EMG frequency
- protection from EMG [4]: protected from EMG to levels comparable
- mice with clear EMG weakness ([4]; at 12 weeks): one of 12
- mice with holding times of 6.2-8 minutes ([4]; at 12 weeks): two mice

Compound: α101-137: human AChR α subunit sequence region covered by peptides α101-120 and α118-137 (AIVKFTKVLLQYTGHITWTPPAIFKSYCEIIVTHFPF; UniProt P02708 121-157, looked up, fragment)
- recognition by CD4+ cells of MG patients [1]: recognized by the majority of the patients

Compound: CC[n+]1c(-c2ccccc2)c2cc(N)ccc2c2ccc(N)cc21 [ethidium bromide]
- staining of bronchi [5]: increasingly weaker
- staining of lung parenchyma [5]: only weak focal signals
- staining of nostrils, larynx and trachea [5]: brightly stained

Compound: peptide α304-322: synthetic sequence of the human AChR α subunit, universal epitope (STHVMPNWVRKVFIDTIPN; UniProt P02708 324-342, looked up, fragment)
- recognition by CD4+ cells of MG patients [1]: recognized by the majority of the patients
